From patent publication US9376425B2, “Heterocyclic compounds as MDM2 inhibitors for the treatment of cancer” (AMGEN INC., priority 2011, dated 2016)

Biological target: T1, human MDM2 (GST-hMDM2 1-188), interaction with biotinylated-p53 (1-83) (Homo sapiens, UniProt Q00987)
T1 construct: Amino acid residues 1-188 of human MDM2 were expressed; made in house; host or cells: Escherichia coli
Test: improved HTRF assay (HTRF2 assay), inhibition of HDM2-p53 interaction
Assay type: binding
Conditions: 0.2 nM GST-hMDM2, 0.5 nM biotinylated-p53, 100 mM KF
Outline: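 GST-hMDM2 preincubated 20 min at RT with serially diluted compound, then biotinylated p53 (1-83, E. coli) added for 60 min. Detection with SA-XLent, anti-GST cryptate and KF, equilibrated >4 h; final DMSO 2%. TR-FRET read; % inhibition calculated relative to nutlin-3.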

T1 sequence (Q00987 1-188): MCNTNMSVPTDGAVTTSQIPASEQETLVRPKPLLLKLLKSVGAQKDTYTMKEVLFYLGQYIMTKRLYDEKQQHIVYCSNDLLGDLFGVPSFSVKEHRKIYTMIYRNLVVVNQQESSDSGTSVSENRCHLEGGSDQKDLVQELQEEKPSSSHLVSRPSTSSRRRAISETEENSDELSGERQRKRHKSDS

Row | SMILES | IC50 [nM]
1 | CNC(=O)C[C@@H]1O[C@H](c2cccc(Cl)c2)[C@@H](c2ccc(Cl)cc2)N([C@@H](C)CS(=O)(=O)C(C)(C)C)C1=O (single isomer, unassigned) [Example 227, 2-((2S,5R,6R)-4-((S)-1-(tert-butylsulfonyl)propan-2-yl)-6-(3-chlorophenyl)-5-(4-chlorophenyl)-3-oxomorpholin-2-yl)-N-methylacetamide or 2-((2R,5R,6R)-4-((S)-1-(tert-butylsulfonyl)propan-2-yl)-6-(3-chlorophenyl)-5-(4-chlorophenyl)-3-oxomorpholin-2-yl)-N-methylacetamide] | 11
2 | CNC(=O)C[C@H]1O[C@H](c2cccc(Cl)c2)[C@@H](c2ccc(Cl)cc2)N([C@@H](C)CS(=O)(=O)C(C)(C)C)C1=O (single isomer, unassigned) [Example 228, 2-((2R,5R,6R)-4-((S)-1-(tert-butylsulfonyl)propan-2-yl)-6-(3-chlorophenyl)-5-(4-chlorophenyl)-3-oxomorpholin-2-yl)-N-methylacetamide or 2-((2S,5R,6R)-4-((S)-1-(tert-butylsulfonyl)propan-2-yl)-6-(3-chlorophenyl)-5-(4-chlorophenyl)-3-oxomorpholin-2-yl)-N-methylacetamide] | 14
3 | C[C@@H](CS(=O)(=O)C(C)(C)C)N1C(=O)[C@H](CC(=O)NO)O[C@H](c2cccc(Cl)c2)[C@H]1c1ccc(Cl)cc1 (single isomer, unassigned) [Example 229, 2-((2S,5R,6R)-4-((S)-1-(tert-butylsulfonyl)propan-2-yl)-6-(3-chlorophenyl)-5-(4-chlorophenyl)-3-oxomorpholin-2-yl)-N-hydroxyacetamide or 2-((2R,5R,6R)-4-((S)-1-(tert-butylsulfonyl)propan-2-yl)-6-(3-chlorophenyl)-5-(4-chlorophenyl)-3-oxomorpholin-2-yl)-N-hydroxyacetamide] | 8
4 | C[C@@H](CS(=O)(=O)C(C)(C)C)N1C(=O)[C@@H](CC(=O)NO)O[C@H](c2cccc(Cl)c2)[C@H]1c1ccc(Cl)cc1 (single isomer, unassigned) [Example 230, 2-((2R,5R,6R)-4-((S)-1-(tert-butylsulfonyl)propan-2-yl)-6-(3-chlorophenyl)-5-(4-chlorophenyl)-3-oxomorpholin-2-yl)-N-hydroxyacetamide or 2-((2S,5R,6R)-4-((S)-1-(tert-butylsulfonyl)propan-2-yl)-6-(3-chlorophenyl)-5-(4-chlorophenyl)-3-oxomorpholin-2-yl)-N-hydroxyacetamide] | 7
5 | C[C@@H](CS(=O)(=O)C(C)(C)C)N1C(=O)[C@H](CC(=O)N(C)C)O[C@H](c2cccc(Cl)c2)[C@H]1c1ccc(Cl)cc1 (single isomer, unassigned) [Example 231, 2-((2S,5R,6R)-4-((S)-1-(tert-butylsulfonyl)propan-2-yl)-6-(3-chlorophenyl)-5-(4-chlorophenyl)-3-oxomorpholin-2-yl)-N,N-dimethylacetamide or 2-((2R,5R,6R)-4-((S)-1-(tert-butylsulfonyl)propan-2-yl)-6-(3-chlorophenyl)-5-(4-chlorophenyl)-3-oxomorpholin-2-yl)-N,N-dimethylacetamide] | 16
6 | C[C@@H](CS(=O)(=O)C(C)(C)C)N1C(=O)[C@@H](CC(=O)N(C)C)O[C@H](c2cccc(Cl)c2)[C@H]1c1ccc(Cl)cc1 (single isomer, unassigned) [Example 232, 2-((2R,5R,6R)-4-((S)-1-(tert-butylsulfonyl)propan-2-yl)-6-(3-chlorophenyl)-5-(4-chlorophenyl)-3-oxomorpholin-2-yl)-N,N-dimethylacetamide or 2-((2S,5R,6R)-4-((S)-1-(tert-butylsulfonyl)propan-2-yl)-6-(3-chlorophenyl)-5-(4-chlorophenyl)-3-oxomorpholin-2-yl)-N,N-dimethylacetamide] | 31
7 | C[C@@H](CS(=O)(=O)C(C)(C)C)N1C(=O)[C@H](CC(=O)NCCO)O[C@H](c2cccc(Cl)c2)[C@H]1c1ccc(Cl)cc1 (single isomer, unassigned) [Example 233, 2-((2S,5R,6R)-4-((S)-1-(tert-butylsulfonyl)propan-2-yl)-6-(3-chlorophenyl)-5-(4-chlorophenyl)-3-oxomorpholin-2-yl)-N-(2-hydroxyethyl)acetamide or 2-((2R,5R,6R)-4-((S)-1-(tert-butylsulfonyl)propan-2-yl)-6-(3-chlorophenyl)-5-(4-chlorophenyl)-3-oxomorpholin-2-yl)-N-(2-hydroxyethyl)acetamide] | 6
8 | C[C@@H](CS(=O)(=O)C(C)(C)C)N1C(=O)[C@@H](CC(=O)NCCO)O[C@H](c2cccc(Cl)c2)[C@H]1c1ccc(Cl)cc1 (single isomer, unassigned) [Example 234, 2-((2R,5R,6R)-4-((S)-1-(tert-butylsulfonyl)propan-2-yl)-6-(3-chlorophenyl)-5-(4-chlorophenyl)-3-oxomorpholin-2-yl)-N-(2-hydroxyethyl)acetamide or 2-((2S,5R,6R)-4-((S)-1-(tert-butylsulfonyl)propan-2-yl)-6-(3-chlorophenyl)-5-(4-chlorophenyl)-3-oxomorpholin-2-yl)-N-(2-hydroxyethyl)acetamide] | 15
9 | C[C@@H](CS(=O)(=O)C(C)(C)C)N1C(=O)[C@H](CC(=O)N2CCOCC2)O[C@H](c2cccc(Cl)c2)[C@H]1c1ccc(Cl)cc1 (single isomer, unassigned) [Example 235, (2S,5R,6R)-4-((S)-1-(tert-butylsulfonyl)propan-2-yl)-6-(3-chlorophenyl)-5-(4-chlorophenyl)-2-(2-morpholino-2-oxoethyl)morpholin-3-one or (2R,5R,6R)-4-((S)-1-(tert-butylsulfonyl)propan-2-yl)-6-(3-chlorophenyl)-5-(4-chlorophenyl)-2-(2-morpholino-2-oxoethyl)morpholin-3-one] | 11
10 | C[C@@H](CS(=O)(=O)C(C)(C)C)N1C(=O)[C@@H](CC(=O)N2CCOCC2)O[C@H](c2cccc(Cl)c2)[C@H]1c1ccc(Cl)cc1 (single isomer, unassigned) [Example 236, (2R,5R,6R)-4-((S)-1-(tert-butylsulfonyl)propan-2-yl)-6-(3-chlorophenyl)-5-(4-chlorophenyl)-2-(2-morpholino-2-oxoethyl)morpholin-3-one or (2S,5R,6R)-4-((S)-1-(tert-butylsulfonyl)propan-2-yl)-6-(3-chlorophenyl)-5-(4-chlorophenyl)-2-(2-morpholino-2-oxoethyl)morpholin-3-one] | 22
11 | C[C@@H](CS(=O)(=O)C(C)(C)C)N1C(=O)[C@H](CC(=O)NS(C)(=O)=O)O[C@H](c2cccc(Cl)c2)[C@H]1c1ccc(Cl)cc1 (single isomer, unassigned) [Example 237] | 3
12 | C[C@@H](CS(=O)(=O)C(C)(C)C)N1C(=O)[C@@H](CC(=O)NS(C)(=O)=O)O[C@H](c2cccc(Cl)c2)[C@H]1c1ccc(Cl)cc1 (single isomer, unassigned) [Example 238] | 1
